Experimental data from patent publication US7517532B2, “Dihydroxypyridopyrazine-1,6-dione compounds useful as HIV integrase inhibitors” (Merck & Co., Inc., priority 2002, dated 2009).

Each molecule was assayed on HIV (assay: Assay for inhibition of HIV replication (acute HIV infection of T-lymphoid cells)). Conditions: Human immunodeficiency virus 1, T-lymphoid.
Format: cell-based
Protocol: Assay for Inhibition of HIV Replication
Assays for the inhibition of acute HIV infection of T-lymphoid cells were conducted in accordance with Vacca, J. P. et al., Proc. Natl. Acad. Sci. USA 1994, 91: 4096.

CCOC[C@@H]1[C@@H]2[C@H]1n1c(c(O)c(O)cc1=O)C(=O)N2Cc1ccc(F)cc1 (racemic) [Example 42, (±)-1-(Ethoxymethyl)-2-(4-fluorobenzyl)-4,5-dihydroxy-1,1a,2,8a-tetrahydrocyclo-propa[e]pyrido[1,2-a]pyrazine-3,7-dione] and CCCOC[C@@H]1[C@@H]2[C@H]1n1c(c(O)c(O)cc1=O)C(=O)N2Cc1ccc(F)cc1 (racemic) [Example 43, (±)-1-(n-Propoxymethyl)-2-(4-fluorobenzyl)-4,5-dihydroxy-1,1a,2,8a-tetrahydrocyclo-propa[e]pyrido[1,2-a]pyrazine-3,7-dione] cannot be ordered by IC95: < 1000 nM for the first, < 1000 nM for the second.

O=C1c2c(O)c(O)c(Br)c(=O)n2CCN1Cc1ccc(F)cc1 [Example 4, 2-(4-Fluorobenzyl)-8,9-dihydroxy-7-bromo-3,4-dihydro-2H-pyrido[1,2-a]pyrazine-1,6-dione] and Cc1c(O)c(O)c2n(c1=O)CCN(Cc1ccc(F)cc1)C2=O [Example 3, 2-(4-Fluorobenzyl)-8,9-dihydroxy-7-methyl-3,4-dihydro-2H-pyrido[1,2-a]pyrazine-1,6-dione] cannot be ordered by IC95: < 5000 nM for the first, < 5000 nM for the second.

O=C1c2c(O)c(O)cc(=O)n2CCN1Cc1ccccc1 [Example 1, 2-Benzyl-8,9-dihydroxy-3,4-dihydro-2H-pyrido[1,2-a]pyrazine-1,6-dione] and O=C1c2c(O)c(O)cc(=O)n2CCN1Cc1ccc(Cl)cc1 [Example 7, 2-(4-Chlorobenzyl)-8,9-dihydroxy-3,4-dihydro-2H-pyrido[1,2-a]pyrazine-1,6-dione] cannot be ordered by IC95: < 5000 nM for the first, < 5000 nM for the second.

CN1CCN(Cc2c(O)c(O)c3c(=O)n(Cc4ccc(F)cc4)ccn3c2=O)CC1=O [Example 27, 2-(4-Fluorobenzyl)-8,9-dihydroxy-7-[(4-methyl-3-oxopiperazin-1-yl)methyl]-2H-pyrido[1,2-a]pyrazine-1,6-dione] and O=c1c2c(O)c(O)c(CN3CCOCC3)c(=O)n2ccn1Cc1ccc(F)cc1 [Example 28, 2-(4-Fluorobenzyl)-8,9-dihydroxy-7-[(morpholin4yl)methyl]-2H-pyrido[1,2-a]pyrazine-1,6-dione] cannot be ordered by IC95: < 1000 nM for the first, < 1000 nM for the second.

CC1CN(Cc2ccc(F)cc2)C(=O)c2c(O)c(O)cc(=O)n21 (stereo not drawn) [Example 16, 2-(4-Fluorobenzyl)-8,9-dihydroxy-4-methyl-3,4-dihydro-2H-pyrido[1,2-a]pyrazine-1,6-dione] and CC1Cn2c(c(O)c(O)cc2=O)C(=O)N1Cc1ccc(F)cc1 (stereo not drawn) [Example 18, 2-(4-Fluorobenzyl)-8,9-dihydroxy-3-methyl-3,4-dihydro-2H-pyrido[1,2-a]pyrazine-1,6-dione] cannot be ordered by IC95: < 5000 nM for the first, < 5000 nM for the second.

O=c1c2c(O)c(O)c(CN3CCSCC3)c(=O)n2ccn1Cc1ccc(F)cc1 [Example 29, 2-(4-Fluorobenzyl)-8,9-dihydroxy-7-[(thiomorpholin-4-yl)methyl]-2H-pyrido[1,2-a]pyrazine-1,6-dione] and O=c1c2c(O)c(O)c(CN3CCCCC3)c(=O)n2ccn1Cc1ccc(F)cc1 [Example 25, 2-(4-Fluorobenzyl)-8,9-dihydroxy-7-(piperidin-1-ylmethyl)-2H-pyrido[1,2-a]pyrazine-1,6-dione] cannot be ordered by IC95: < 1000 nM for the first, < 1000 nM for the second.

CN(C)Cc1c(O)c(O)c2n(c1=O)CCN(Cc1ccc(F)cc1)C2=O [Example 13, 2-(4-Fluorobenzyl)-8,9-dihydroxy-7-[(dimethylamino)methyl]-3,4-dihydro-2H-pyrido[1,2-a]pyrazine-1,6-dione] and O=C1c2c(O)c(O)c(I)c(=O)n2CCN1Cc1ccc(F)cc1 [Example 5, 2-(4-Fluorobenzyl)-8,9-dihydroxy-7-iodo-3,4-dihydro-2H-pyrido[1,2-a]pyrazine-1,6-dione] cannot be ordered by IC95: < 5000 nM for the first, < 5000 nM for the second.

CC1(C)CN(Cc2ccc(F)cc2)C(=O)c2c(O)c(O)cc(=O)n21 [Example 17, 2-(4-Fluorobenzyl)-8,9-dihydroxy4,4dimethyl-3,4-dihydro-2H-pyrido[1,2-a]pyrazine-1,6-dione] and CC(=O)N1CCCCC1Cc1c(O)c(O)c2n(c1=O)CCN(Cc1ccc(F)cc1)C2=O (stereo not drawn) [Example 35, 7-[(1-Acetylpiperidin-2-yl)methyl]-2-(4-fluorobenzyl)-8,9-dihydroxy-3,4-dihydro-2H-pyrido[1,2-a]pyrazine-1,6-dione] cannot be ordered by IC95: < 5000 nM for the first, < 1000 nM for the second.

CC(=O)N1CCCC(Cc2c(O)c(O)c3n(c2=O)CCN(Cc2ccc(F)cc2)C3=O)C1 (stereo not drawn) [Example 34, 7-[(1-Acetylpiperidin-3-yl)methyl]-2-(4-fluorobenzyl)-8,9-dihydroxy-3,4-dihydro-2H-pyrido[1,2-a]pyrazine-1,6-dione] and CSc1cc(F)ccc1Cn1ccn2c(=O)cc(O)c(O)c2c1=O [Example 30, 2-[4-Fluoro-2-(methylthio)benzyl)-8,9-dihydroxy-2H-pyrido[1,2-a]pyrazine-1,6-dione] cannot be ordered by IC95: < 1000 nM for the first, < 1000 nM for the second.
